Experimental data taken from US20230279020A9, “CARM1 INHIBITORS AND USES THEREOF” (Epizyme, Inc., priority 2013, published 2023).

target: Human CARM1 (PRMT4) (Homo sapiens (Human), UniProt Q86X55); experiment: CARM1 enzyme assay on peptide substrate (3H-SAM Flashplate); settings: Biochemical potencies, classification codes; read-out: Biochem IC50
Sequence (Q86X55 other isoform, or with tags, fused parts or gaps isoform Q86X55-1): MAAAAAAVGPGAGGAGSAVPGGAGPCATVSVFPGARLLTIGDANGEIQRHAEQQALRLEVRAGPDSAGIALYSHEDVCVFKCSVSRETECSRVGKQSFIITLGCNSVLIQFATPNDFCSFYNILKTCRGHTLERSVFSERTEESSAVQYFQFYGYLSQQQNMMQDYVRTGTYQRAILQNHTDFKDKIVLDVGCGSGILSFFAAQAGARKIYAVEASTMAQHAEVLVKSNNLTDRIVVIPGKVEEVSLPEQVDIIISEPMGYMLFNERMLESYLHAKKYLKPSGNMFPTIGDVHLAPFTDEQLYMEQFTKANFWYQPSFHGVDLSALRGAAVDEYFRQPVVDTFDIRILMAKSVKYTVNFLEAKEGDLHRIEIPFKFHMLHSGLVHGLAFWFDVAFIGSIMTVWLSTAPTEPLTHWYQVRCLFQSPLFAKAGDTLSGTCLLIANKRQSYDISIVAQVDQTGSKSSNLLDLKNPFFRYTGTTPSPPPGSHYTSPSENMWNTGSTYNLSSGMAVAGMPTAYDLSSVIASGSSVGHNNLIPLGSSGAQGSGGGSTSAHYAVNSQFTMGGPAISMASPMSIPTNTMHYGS

Row | Compound | IC50
1 | CCS(=O)(=O)N1CC2(CCCN(c3nc(-c4cccc(OCC(O)CNC)c4)nc(-c4c(C)noc4C)c3C)C2)C1 (stereo not shown) [Example 296-1a] | < 100 nM
2 | CNC[C@@H](O)COc1ccc(Cl)c(-c2nc(-c3c(C)noc3C)c(C)c(N3Cc4cc(C)cnc4C3)n2)c1 [Example 296-3] | < 100 nM
3 | CNCC(O)COc1cccc(-c2nc(-c3c(C)noc3C)c(C)c(N3CCCC4(CN(C(=O)N(C)C)C4)C3)n2)c1 (stereo not shown) [Example 297-1a] | < 100 nM
4 | CNC[C@@H](O)COc1ccc(Cl)c(-c2nc(-c3c(C)noc3C)c(F)c(N3Cc4nccnc4C3)n2)c1 [Example 297-3] | < 100 nM
5 | CNCC(O)COc1cccc(-c2nc(-c3c(C)noc3C)c(C)c(N3CC(CO)(CNC(=O)N(C)C)C3)n2)c1 (stereo not shown) [Example 298-1a] | < 100 nM
6 | CNCC(O)COc1cccc(-c2nc(-c3c(C)noc3C)c(C)c(N3CC4(CN(C(=O)OC)C4)C3)n2)c1 (stereo not shown) [Example 299-1a] | < 100 nM
7 | CNCC(O)COc1cccc(-c2nc(NCC3(OC)CCOCC3)c(C)c(-c3c(C)noc3C)n2)c1 (stereo not shown) [Example 300-1a] | < 100 nM
8 | CNCC(O)COc1cccc(-c2nc(NCC3(N4CCC4)CCOCC3)c(C)c(-c3c(C)noc3C)n2)c1 (stereo not shown) [Example 301-1a] | < 100 nM
9 | CNCC(O)COc1cccc(-c2nc(NCC3(N4CC(F)(F)C4)CCOCC3)c(C)c(-c3c(C)noc3C)n2)c1 (stereo not shown) [Example 302-1a] | < 100 nM
10 | CNCC(O)COc1cccc(-c2nc(OCC3CCN(C4CC4)CC3)c(C)c(-c3c(C)noc3C)n2)c1 (stereo not shown) [Example 303-1a] | < 100 nM
11 | CNC[C@H](O)COc1ccc(Cl)c(-c2nc(NC3CCN(C(=O)OC)CC3)c(Cl)c(-c3c(C)noc3C)n2)c1 [Example 305-1a] | < 100 nM
12 | CNCC(O)COc1cccc(-c2nc(NC[C@@H]3CN(C(=O)OC)CCO3)c(C)c(-c3c(C)noc3C)n2)c1 (stereo partly shown) [Example 306-1a] | < 100 nM
13 | CNCC(O)COc1cccc(-c2nc(N[C@@H]3CCNC3)c(C)c(-c3c(C)noc3C)n2)c1 (stereo partly shown) [Example 307-1a] | < 100 nM
14 | CNCC(O)COc1cccc(-c2nc(-c3c(C)noc3C)c(C)c(N(C)C)n2)c1 (stereo not shown) [Example 308-1a] | < 100 nM
15 | CNCC(O)COc1cccc(-c2nc(-c3c(C)noc3C)c(C)c(N3CC4(CN(C(=O)N(C)C)C4)C3)n2)c1 (stereo not shown) [Example 309-1a] | < 100 nM
16 | CNCC(O)COc1cc(Cl)cc(-c2nc(N[C@@H]3CCOC3)c(C)c(-c3ccncc3)n2)c1 (stereo partly shown) [Example 331-1a] | < 100 nM
17 | CNCC(O)COc1cccc(-c2nc(N[C@@H]3CCOC3)c(C)c(-c3ccncc3)n2)c1 (stereo partly shown) [Example 332-1a] | < 100 nM
18 | CNCC(O)COc1cc(Cl)cc(-c2nc(-c3ccncc3)c(C)c(N(C)[C@H]3CCOC3)n2)c1 (stereo partly shown) [Example 334-1a] | < 100 nM
19 | CNCC(O)COc1cccc(-c2nc(NC3CCOC3)c(C)c(-c3cn(C)nn3)n2)c1 (stereo not shown) [Example 335-1a] | < 100 nM
20 | CNCC(O)COc1cccc(-c2nc(N[C@@H]3CCOC3)c(C)c(-c3cn[nH]c3)n2)c1 (stereo partly shown) [Example 338-1a] | < 100 nM
21 | CNCC(O)COc1cccc(-c2nc(-c3ccncc3)c(C)c(N(C)[C@@H]3CCOC3)n2)c1 (stereo partly shown) [Example 339-1a] | < 100 nM
22 | CNCC(O)COc1cccc(-c2nc(N[C@@H]3CCOC3)c(C)c(-c3cncc(C(=O)OC)c3)n2)c1 (stereo partly shown) [Example 340-1a] | < 100 nM
23 | CNCC(O)COc1cccc(-c2nc(N[C@@H]3CCOC3)c(C)c(-c3cncc(C#N)c3)n2)c1 (stereo partly shown) [Example 341-1a] | < 100 nM
24 | CNCC(O)COc1cccc(-c2nc(N[C@@H]3CCOC3)c(C)c(-c3cncnc3)n2)c1 (stereo partly shown) [Example 350-1a] | < 100 nM

Row | Compound | IC50
25 | CNCC(O)COc1cccc(-c2nc(NC3CCOC3)c(C)c(N3CCN[C@@H](C)C3)n2)c1 (stereo partly shown) [Example 351-1a] | < 100 nM
26 | CNCC(O)COc1cccc(-c2nc(NC3CCOC3)c(C)c(N3CCNC[C@H]3C)n2)c1 (stereo partly shown) [Example 352-1a] | < 100 nM
27 | CNCC(O)COc1cccc(-c2nc(N[C@@H]3CCOC3)c(C)c(-c3cnc4[nH]ccc4c3)n2)c1 (stereo partly shown) [Example 355-1a] | < 100 nM
28 | CNCC(O)COc1cccc(-c2nc(N[C@@H]3CCOC3)c(C)c(-c3cnc(OC)nc3)n2)c1 (stereo partly shown) [Example 356-1a] | < 100 nM
29 | CNCC(O)COc1cccc(-c2nc(N[C@@H]3CCOC3)c(C)c(N3CCC[C@@H](O)C3)n2)c1 (stereo partly shown) [Example 358-1a] | < 100 nM
30 | CNCC(O)COc1cccc(-c2nc(N[C@@H]3CCOC3)c(C)c(N3CCn4ccnc4C3)n2)c1 (stereo partly shown) [Example 359-1a] | < 100 nM
31 | CNCC(O)COc1cccc(-c2nc(N[C@H]3CCOC3)c(C)c(N3CCC(O)CC3)n2)c1 (stereo partly shown) [Example 362-1a] | < 100 nM
32 | CNCC(O)COc1cccc(-c2nc(N[C@H]3CCOC3)c(C)c(C(=O)N(C)CC3CCOCC3)n2)c1 (stereo partly shown) [Example 363-1a] | 100 to 1000 nM
33 | CNCC(O)COc1cccc(-c2nc(NCCCCl)c(C)c(N[C@@H]3CCOC3)n2)c1 (stereo partly shown) [Example 366-1a] | < 100 nM
34 | CNCC(O)COc1cccc(-c2nc(N[C@@H]3CCOC3)c(C)c(N3CCC(N4CCOCC4)CC3)n2)c1 (stereo partly shown) [Example 367-1a] | < 100 nM
35 | CNCC(O)COc1cccc(-c2nc(N[C@@H]3CCOC3)c(C)c(N3CC[C@H](N(C)C)C3)n2)c1 (stereo partly shown) [Example 368-1a] | < 100 nM
36 | CNCC(O)COc1cccc(-c2nc(N[C@@H]3CCOC3)c(C)c(N3CC[C@@H](OC)C3)n2)c1 (stereo partly shown) [Example 369-1a] | < 100 nM
37 | CNCC(O)COc1cccc(-c2nc(N[C@@H]3CCOC3)c(C)c(N3CCC(OC)CC3)n2)c1 (stereo partly shown) [Example 370-1a] | < 100 nM
38 | CNCC(O)COc1cccc(-c2nc(N[C@@H]3CCOC3)c(Cl)c(N3CCOCC3)n2)c1 (stereo partly shown) [Example 376-1a] | < 100 nM
39 | CNCC(O)COc1cccc(-c2nc(N[C@@H]3CCOC3)c(C)c(N3CCC3)n2)c1 (stereo partly shown) [Example 377-1a] | < 100 nM
40 | CNCC(O)COc1cccc(-c2nc(N[C@@H]3CCOC3)c(C)c(N(C)C3CCN(C)CC3)n2)c1 (stereo partly shown) [Example 379-1a] | < 100 nM
41 | CNCC(O)COc1cccc(-c2nc(N[C@H]3CCOC3)c(C)c(-n3nc(C)cc3C)n2)c1 (stereo partly shown) [Example 381-1a] | < 100 nM
42 | CNCC(O)COc1cccc(-c2nc(N[C@@H]3CCOC3)c(C)c(-n3nc(C)cc3C)n2)c1 (stereo partly shown) [Example 382-1a] | < 100 nM
43 | CNCC(O)COc1cccc(-c2nc(N[C@@H]3CCOC3)c(C)c(N3CCN(CC(=O)N(C)C)CC3)n2)c1 (stereo partly shown) [Example 391-1a] | < 100 nM
44 | CNCC(O)COc1cccc(-c2nc(N[C@@H]3CCOC3)c(C)c(N3CC[C@@H](N(C)C)C3)n2)c1 (stereo partly shown) [Example 392-1a] | < 100 nM
45 | CNCC(O)COc1cccc(-c2nc(N[C@@H]3CCOC3)c(C)c(N3Cc4cccnc4C3)n2)c1 (stereo partly shown) [Example 394-1a] | < 100 nM
46 | CNCC(O)COc1cccc(-c2nc(N[C@@H]3CCOC3)c(C)c(N3CCN(C(C)=O)[C@@H](C)C3)n2)c1 (stereo partly shown) [Example 396-1a] | < 100 nM
47 | CNCC(O)COc1cccc(-c2nc(NC3CCOC3)c(C)c(C(=O)NC3CCN(C)CC3)n2)c1 (stereo not shown) [Example 397-1a] | < 100 nM
48 | CNCC(O)COc1cccc(-c2nc(NC3CCOC3)c(C)c(N3CC4(CCNCC4)c4ccccc43)n2)c1 (stereo not shown) [Example 398-1a] | < 100 nM

Row | Compound | IC50
49 | CNCC(O)COc1cccc(-c2nc(N[C@@H]3CCOC3)c(C)c(-c3ccc(OC)nc3)n2)c1 (stereo partly shown) [Example 408-1a] | < 100 nM
50 | CNCC(O)COc1cccc(-c2nc(N[C@@H]3CCOC3)c(C)c(N3CC4CCC(C3)O4)n2)c1 (stereo partly shown) [Example 412-1a] | < 100 nM
51 | CNCC(O)COc1cccc(-c2nc(N[C@@H]3CCOC3)c(C)c(C3=CC(C)(C)NC(C)(C)C3)n2)c1 (stereo partly shown) [Example 415-1a] | < 100 nM
52 | CNCC(O)COc1cccc(-c2nc(NC3CCOC3)c(C)c(N3CCN(C(C)=O)C[C@H]3C)n2)c1 (stereo partly shown) [Example 421-1a] | < 100 nM
53 | CNCC(O)COc1cccc(-c2nc(N[C@@H]3CCOC3)c(C)c(N3CCNCC3)n2)c1 (stereo partly shown) [Example 422-1a] | < 100 nM
54 | CNCC(O)COc1cccc(-c2nc(N[C@@H]3CCOC3)c(C)c(N3CCC4(CC3)CNC(=O)C4)n2)c1 (stereo partly shown) [Example 424-1a] | < 100 nM
55 | CNCC(O)COc1cccc(-c2nc(N[C@@H]3CCOC3)c(C)c(N3CCS(=O)(=O)CC3)n2)c1 (stereo partly shown) [Example 425-1a] | < 100 nM
56 | CNCC(O)COc1cccc(-c2nc(N[C@@H]3CCOC3)c(C)c(N3Cc4ccncc4C3)n2)c1 (stereo partly shown) [Example 427-1a] | < 100 nM
57 | CNCC(O)COc1cccc(-c2nc(N[C@@H]3CCOC3)c(C)c(N3CCC4(CCNCC4)CC3)n2)c1 (stereo partly shown) [Example 429-1a] | < 100 nM
58 | CNCC(O)COc1cccc(-c2nc(N[C@@H]3CCOC3)c(C)c(N3CCN(S(C)(=O)=O)CC3)n2)c1 (stereo partly shown) [Example 434-1a] | < 100 nM
59 | CNCC(O)COc1cccc(-c2nc(N[C@@H]3CCOC3)c(C)c(N3CCN(C)C(=O)C3)n2)c1 (stereo partly shown) [Example 435-1a] | < 100 nM
60 | CNCC(O)COc1cccc(-c2nc(N[C@@H]3CCOC3)c(C)c(N3CCN(C4CC4)CC3)n2)c1 (stereo partly shown) [Example 436-1a] | < 100 nM
61 | CNCC(O)COc1cccc(-c2nc(N[C@@H]3CCOC3)c(C)c(N3CC[C@@H](O)C3)n2)c1 (stereo partly shown) [Example 437-1a] | < 100 nM
62 | CNCC(O)COc1cccc(-c2nc(N[C@@H]3CCOC3)c(C)c(N3CCN(C(C)=O)C(C)(C)C3)n2)c1 (stereo partly shown) [Example 439-1a] | < 100 nM
63 | CNCC(O)COc1cccc(-c2nc(N[C@@H]3CCOC3)c(C)c(N3C[C@H]4CNC[C@H]4C3)n2)c1 (stereo partly shown) [Example 440-1a] | < 100 nM
64 | CNCC(O)COc1cccc(-c2nc(N[C@@H]3CCOC3)c(C)c(N3CCC(S(C)(=O)=O)CC3)n2)c1 (stereo partly shown) [Example 441-1a] | < 100 nM
65 | CNCC(O)COc1cccc(-c2nc(NC3CCOC3)c(C)c(N3CC(N)CC(Cl)C3)n2)c1 (stereo not shown) [Example 442-1a] | < 100 nM
66 | CNCC(O)COc1cccc(-c2nc(N[C@@H]3CCOC3)c(C)c(N3C[C@H]4C[C@@H]3CN4C)n2)c1 (stereo partly shown) [Example 443-1a] | < 100 nM
67 | CNCC(O)COc1cccc(-c2nc(NC3CCOC3)c(C)c(N3CCN(CCF)CC3)n2)c1 (stereo not shown) [Example 446-1a] | < 100 nM
68 | CNCC(O)COc1cccc(-c2nc(NC3CCOC3)c(C)c(N3CCN(C(=O)OC)C(C)(C)C3)n2)c1 (stereo not shown) [Example 447-1a] | < 100 nM
69 | CCS(=O)(=O)N1CCN(c2nc(-c3cccc(OCC(O)CNC)c3)nc(NC3CCOC3)c2C)CC1(C)C (stereo not shown) [Example 448-1a] | < 100 nM
70 | CNCC(O)COc1cccc(-c2nc(NC3CCOC3)c(C)c(N3CCN(CC(F)(F)F)CC3)n2)c1 (stereo not shown) [Example 449-1a] | < 100 nM
